Reference: patent US10206894B2, “Compounds for use in treatment of mucositis” (priority 2011, dated 2019)
Where two headings read alike, the source gives them in different places.

Tested on: radiation-induced oral mucositis, left buccal cheek pouch
Format: in vivo
Conditions: for mean daily mucositis scores vs untreated control (Mann-Whitney Rank-sum), efficacy: topical three times per day
Text: In the irradiated hamster cheek pouch model of oral mucositis, the hamster cheek pouch is everted and irradiated to produce a localized mucositis. The progression and resolution of mucositis in the hamster model is very similar to that observed in the human condition and the model has been validated clinically with respect to dosing schedules of therapeutic agents (Murphy et al., Clin. Cancer Res., 2008, 14, 4292-4297; Alvarez et al., Clin. Cancer Res., 2003, 9, 3454-3461; and Schuster et al., J. Clin. Oncol., 2006, 24, 6537). Briefly, on day 0, all animals were given an acute radiation dose directed to their left buccal cheek pouch. Test articles were applied topically to the left pouch three times per day from day 0 to day 20 and mucositis was evaluated clinically starting on day 6, and continued on alternate days until […]. Study endpoints were mucositis score, weight change and survival. Mucositis was scored visually by comparison to a validated photographic scale. The scale ranges from 0 for normal, to 5 for severe ulceration. The clinical mucositis score of 3 in hamsters indicates the presence of an ulcer. In terms of the syndrome, it is believed that the dose-limiting chemotherapeutic- or radiation-induced pain is associated with frank ulceration; therefore a compound that prevents ulceration in the model might have utility in the clinical setting.
To evaluate mucositis severity, animals were anesthetized with an inhalation anesthetic, and the left cheek pouch everted. Mucositis was scored visually by comparison to a validated photographic scale. The scale ranges from 0 for normal, to 5 for severe ulceration. In descriptive terms, this scale is defined as follows: […]
A score of 1-2 is considered to represent a mild stage of injury, whereas a score of 3-5 is considered to indicate moderate to severe mucositis. In terms of the syndrome, it is believed that the dose-limiting chemotherapeutic- or radiation-induced pain is associated with frank ulceration; therefore a compound that prevents ulceration in the model might have utility in the clinical setting. In the hamster model, a clinical mucositis score of 3 indicates the presence of an ulcer and the duration of scores of 3 or greater is used as a primary measurement of efficacy in mucositis treatment. Ulceration is the point in the development of mucositis where the physical integrity of the oral mucosa is breached. In the clinic, a patient presenting with severe oral ulcerations may require hospitalization for analgesic, narcotic and/or antibiotic therapies or fluid support.
On day 0, all animals were given an acute radiation dose directed to their left buccal cheek pouch. This was accomplished by anesthetizing the animals and everting the left buccal pouch, while protecting the rest of the animals with a lead shield. Test agents were applied topically to the left buccal pouch three times per day from day 0 to day 20. Mucositis was evaluated clinically starting on day 6, and continued on alternate days until day 28. Study endpoints were mucositis score, weight change and survival. Mucositis was scored visually by comparison to a validated photographic scale. No treatment-related deaths were recorded throughout the study. The mean daily percent weight gains were similar in all groups and there were no apparent toxicities in any of the test agent treatment groups. Differences between the ulcerative severity in controls and the treated groups were assessed in two ways. First, mean daily mucositis scores for each group at each time-point were compared with the untreated control group using the Mann-Whitney Rank-sum analysis. […] At 0.3 mg/ml, efficacy was partial early in the treatment period.
Alternately, ulcerative severity differences between control and treatment groups were assessed by the comparison of the number of days with an ulcer (i.e., a score of 3 or higher) using a chi-squared (χ2) test.

N=C(N)NCCCCC(=O)Nc1cc(C(F)(F)F)cc(NC(=O)c2cc(C(=O)Nc3cc(C(F)(F)F)cc(NC(=O)CCCCNC(=N)N)c3OC3CCNC3)ncn2)c1OC1CCNC1 (centres unmarked) [Compound X]
mean daily mucositis scores vs untreated control (Mann-Whitney Rank-sum), efficacy (0.3 mg/ml, early in the treatment period): partial | mean daily mucositis scores vs untreated control (Mann-Whitney Rank-sum), efficacy (1, 3 and 10 mg/ml groups, by Day 12 through Day 28): robust efficacy | mucositis scores, number of days with an ulcer (score of 3 or higher), chi-squared test vs control (1, 3 and 10 mg/ml/dose, p<0.001): statistically significant improvements | treatment days with a clinical score ≥3 (1, 3 and 10 mg/ml/dose, vehicle control 42.7%): < 5% | % reduction of animal days with OM scores ≥ 3 (Acute Radiation): 90.6%-95.3% | impact of Kleptose on the response (mucositis scores) (Kleptose in the vehicle or with 1 mg/kg Compound X): did not significantly impact the response | daily mean mucositis scores and number of days animals exhibited ulceration (acute radiation model, oral rinse 3 times daily, 28 day treatment regimen): significantly reduced | adverse findings in weight gain, general behavior in the home cage, or clinical signs (hamster, in vivo): no adverse findings
